Measured values: ChEMBL document CHEMBL3120145, “Interaction kinetics of liposome-incorporated unsaturated fatty acids with fatty acid-binding protein 3 by surface plasmon resonance” (Bioorg Med Chem, 2014)

How the values were obtained:
[1] = biological target: T1, Fatty acid-binding protein, heart (Homo sapiens, UniProt P05413); assay: Binding affinity to human FABP3 expressed in Escherichia coli BL21 (DE3) at 60 uM by surface plasmon resonance analysis
[2] = biological target: T1, Fatty acid-binding protein, heart; assay: Binding affinity to human FABP3 expressed in Escherichia coli BL21 (DE3) in DMPC liposomes by surface plasmon resonance analysis
[3] = biological target: T1, Fatty acid-binding protein, heart; assay: Binding affinity to human FABP3 expressed in Escherichia coli BL21 (DE3) at 10 uM in DMPC liposomes by surface plasmon resonance analysis

T1 sequence (P05413 whole entry): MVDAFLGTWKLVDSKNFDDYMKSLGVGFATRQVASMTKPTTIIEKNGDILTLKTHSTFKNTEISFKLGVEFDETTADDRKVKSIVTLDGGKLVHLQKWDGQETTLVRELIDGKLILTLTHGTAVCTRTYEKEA

Row | Compound | Kd [1] | Kd [2] | Kd [3]
1 | CCCCCCCCCCCCCC(=O)OC[C@H](COP(=O)(O)OCC[N+](C)(C)C)OC(=O)CCCCCCCCCCCCC | 0.0036 µM |  | 
2 | CC/C=C\C/C=C\C/C=C\CCCCCCCC(=O)O |  | 2.76 nM | 
3 | CCCCCCCCCCC/C=C\CCCCC(=O)O | 54.2 µM |  | 401 nM
